The source of these data is US10526323B2, “Indazole and azaindazole substituted compounds as mGluR4 allosteric potentiators, compositions, and methods of treating neurological dysfunction” (Vanderbilt University, priority 2015, dated 2020).

The target in the experiment is mGluR4 (UniProt Q14833). Nature of the experiment: mGluR4 potentiation assay: increase in response to an EC20 concentration of agonist (species not given). The class given is cell-based. The conditions noted are these: EC50 for potentiation of mGluR4; table does not state human or rat. Put shortly: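 Human mGluR4 was expressed in CHO cells read with a Ca2+-sensitive dye; rat mGluR4 was co-expressed with GIRK in […] read by thallium flux. Potentiation is the rise over agonist-alone response, with EC50 and maximal potentiation from non-linear fits.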
As to `Cc1nn(CC(C)(C)C)c2ccc(Nc3n[nH]c4cccnc34)cc12` [Example 119, N-(3-methyl-1-neopentyl-1H-indazol-5-yl)-1H-pyrazolo[4,3-b]pyridin-3-amine], the EC50 turned out to be 295 nM.
For the molecule `Cc1nn(CC2CC(C(C)C)=NO2)c2ccc(Nc3n[nH]c4cccnc34)cc12` (stereo not shown) [Example 120, N-(1-((3-isopropyl-4,5-dihydroisoxazol-5-yl)methyl)-3-methyl-1H-indazol-5-yl)-1H-pyrazolo[4,3-b]pyridin-3-amine], the EC50 came out at 144 nM.
Consider `CC1=NOC(Cn2nc(C)c3cc(Nc4n[nH]c5cccnc45)ccc32)C1` (stereo not shown) [Example 121, N-(3-methyl-1-((3-methyl-4,5-dihydroisoxazol-5-yl)methyl)-1H-indazol-5-yl)-1H-pyrazolo[4,3-b]pyridin-3-amine], for which the EC50 is 377 nM.
On to `C=C(C)Cn1nc(C)c2cc(Nc3n[nH]c4cccnc34)ccc21` [Example 122, N-(3-methyl-1-(2-methylallyl)-1H-indazol-5-yl)-1H-pyrazolo[4,3-b]pyridin-3-amine], for which the EC50 was found to be 49 nM.
Turning to `[2H]C([2H])([2H])n1nc(C)c2cc(Nc3n[nH]c4cccnc34)ccc21` [Example 123, N-(3-methyl-1-(methyl-d3)-1H-indazol-5-yl)-1H-pyrazolo[4,3-b]pyridin-3-amine], the EC50 was 218 nM.
Under `[2H]C([2H])(C)n1nc(C)c2cc(Nc3n[nH]c4cccnc34)ccc21` [Example 124, N-(1-(ethyl-1,1-d2)-3-methyl-1H-indazol-5-yl)-1H-pyrazolo[4,3-b]pyridin-3-amine] stands 109 nM.
Under `Cc1nn(Cc2ccc3ccccc3n2)c2ccc(Nc3n[nH]c4cccnc34)cc12` [Example 125, N-(3-methyl-1-(quinolin-2-ylmethyl)-1H-indazol-5-yl)-1H-pyrazolo[4,3-b]pyridin-3-amine] stands 1530 nM; under `Cc1noc(Cn2nc(C)c3cc(Nc4n[nH]c5cccnc45)ccc32)n1` [Example 126, N-(3-methyl-1-((3-methyl-1,2,4-oxadiazol-5-yl)methyl)-1H-indazol-5-yl)-1H-pyrazolo[4,3-b]pyridin-3-amine], 264 nM.
With `[2H]C([2H])(C)n1nc(C)c2cc(Nc3n[nH]c4nccnc34)ccc21` [Example 127, N-(1-(ethyl-1,1-d2)-3-methyl-1H-indazol-5-yl)-1H-pyrazolo[3,4-b]pyrazin-3-amine], the EC50 was determined as 154 nM.
Under `C=C(C)Cn1nc(C)c2cc(Nc3n[nH]c4nccnc34)ccc21` [Example 128, N-(3-methyl-1-(2-methylallyl)-1H-indazol-5-yl)-1H-pyrazolo[3,4-b]pyrazin-3-amine] stands 49 nM; under `Cc1nnc(Cn2nc(C)c3cc(Nc4n[nH]c5cccnc45)ccc32)o1` [Example 129, N-(3-methyl-1-((5-methyl-1,3,4-oxadiazol-2-yl)methyl)-1H-indazol-5-yl)-1H-pyrazolo[4,3-b]pyridin-3-amine], 1300 nM.
Under `Cc1cc(Cn2nc(C)c3cc(Nc4n[nH]c5cccnc45)ccc32)on1` [Example 130, N-(3-methyl-1-((3-methylisoxazol-5-yl)methyl)-1H-indazol-5-yl)-1H-pyrazolo[4,3-b]pyridin-3-amine] stands 63 nM; under `CCCn1nc(C)c2cc(Nc3n[nH]c4nccnc34)ccc21` [Example 131, N-(3-methyl-1-propyl-1H-indazol-5-yl)-1H-pyrazolo[3,4-b]pyrazin-3-amine], 107 nM; under `Cc1nn(CCN2CCOCC2)c2ccc(Nc3n[nH]c4cccnc34)cc12` [Example 132, N-(3-methyl-1-(2-morpholinoethyl)-1H-indazol-5-yl)-1H-pyrazolo[4,3-b]pyridin-3-amine], 330 nM.
Under `COCCn1nc(C)c2cc(Nc3n[nH]c4cccnc34)ccc21` [Example 133, N-(1-(2-methoxyethyl)-3-methyl-1H-indazol-5-yl)-1H-pyrazolo[4,3-b]pyridin-3-amine] stands 379 nM.
In the case of `Cc1nn(CCC(C)Cl)c2ccc(Nc3n[nH]c4cccnc34)cc12` (stereo not shown) [Example 134, N-(1-(3-chlorobutyl)-3-methyl-1H-indazol-5-yl)-1H-pyrazolo[4,3-b]pyridin-3-amine], the EC50 worked out at 77 nM.
With `Cc1nn(CC(=O)O)c2ccc(Nc3n[nH]c4cccnc34)cc12` [Example 135, 2-(5-((1H-pyrazolo[4,3-b]pyridin-3-yl)amino)-3-methyl-1H-indazol-1-yl)acetic acid], the EC50 was 832 nM.
As to `CCC(F)(F)Cn1nc(C)c2cc(Nc3n[nH]c4cccnc34)ccc21` [Example 136, N-(1-(2,2-difluorobutyl)-3-methyl-1H-indazol-5-yl)-1H-pyrazolo[4,3-b]pyridin-3-amine], the EC50 came to 253 nM.
Take `CCC(F)(F)Cn1nc(C)c2cc(Nc3n[nH]c4ncccc34)ccc21` [Example 137, N-(1-(2,2-difluorobutyl)-3-methyl-1H-indazol-5-yl)-1H-pyrazolo[3,4-b]pyridin-3-amine]: the EC50 turned out to be 436 nM.
`Cc1nn(C(=O)C(F)(F)F)c2ccc(Nc3n[nH]c4nccnc34)cc12` [Example 138, 1-(5-((1H-pyrazolo[3,4-b]pyrazin-3-yl)amino)-3-methyl-1H-indazol-1-yl)-2,2,2-trifluoroethan-1-one]: the EC50 is 3400 nM.
Under `Cc1nn(CC(C)(F)F)c2ccc(Nc3n[nH]c4cccnc34)cc12` [Example 139, N-(1-(2,2-difluoropropyl)-3-methyl-1H-indazol-5-yl)-1H-pyrazolo[4,3-b]pyridin-3-amine] stands 310 nM; under `Clc1n[nH]c2ccc(Nc3n[nH]c4cccnc34)cc12` [Example 140, N-(3-chloro-1H-indazol-5-yl)-1H-pyrazolo[4,3-b]pyridin-3-amine], 455 nM; under `CCn1nc(Cl)c2cc(Nc3n[nH]c4cccnc34)ccc21` [Example 141, N-(3-chloro-1-ethyl-1H-indazol-5-yl)-1H-pyrazolo[4,3-b]pyridin-3-amine], 815 nM.
Under `c1cnc2c(Nc3cnc4cnn(CC5CCC5)c4c3)n[nH]c2c1` [Example 142, N-(1-(cyclobutylmethyl)-1H-pyrazolo[4,3-b]pyridin-6-yl)-1H-pyrazolo[4,3-b]pyridin-3-amine] stands > 10000 nM; under `Cc1cc(Cn2ncc3ncc(Nc4n[nH]c5nccnc45)cc32)no1` [Example 143, N-(1-((5-methylisoxazol-3-yl)methyl)-1H-pyrazolo[4,3-b]pyridin-6-yl)-1H-pyrazolo[3,4-b]pyrazin-3-amine], > 10000 nM; under `Cc1cc(Cn2cc3ncc(Nc4n[nH]c5cccnc45)cc3n2)no1` [Example 144, N-(2-((5-methylisoxazol-3-yl)methyl)-2H-pyrazolo[4,3-b]pyridin-6-yl)-1H-pyrazolo[4,3-b]pyridin-3-amine], > 10000 nM.
Under `Cc1cc(Cn2cc3ncc(Nc4n[nH]c5nccnc45)cc3n2)no1` [Example 145, N-(2-((5-methylisoxazol-3-yl)methyl)-2H-pyrazolo[4,3-b]pyridin-6-yl)-1H-pyrazolo[3,4-b]pyrazin-3-amine] stands > 10000 nM.
In the case of `Cc1cc(Cn2ncc3ncc(Nc4n[nH]c5cccnc45)cc32)no1` [Example 146, N-(1-((5-methylisoxazol-3-yl)methyl)-1H-pyrazolo[4,3-b]pyridin-6-yl)-1H-pyrazolo[4,3-b]pyridin-3-amine], the EC50 was > 10000 nM.

A word on the EC50: it is the concentration at which the effect is half-maximal.
